Measured values taken from ChEMBL document CHEMBL5537120 (Eur J Med Chem, 2024).
pEC50, pKd: −log10 of the molar value. The source made the active and inactive calls. No cut-off for these calls is given here. Where a SMILES comes first, the peptide text is derived from it. Bridges are numbered along the chain shown (N, C = ends).

Key:
[1] = target: Angiotensin-converting enzyme 2 (Homo sapiens, UniProt Q9BYF1); assay: Binding affinity to ACE2 (unknown origin) by MST analysis
Neuropilin-1 = Neuropilin-1 (Homo sapiens, UniProt O14786); assay: Binding affinity to NRP1 (unknown origin) by MST analysis
Sequence of Neuropilin-1 (O14786 whole entry): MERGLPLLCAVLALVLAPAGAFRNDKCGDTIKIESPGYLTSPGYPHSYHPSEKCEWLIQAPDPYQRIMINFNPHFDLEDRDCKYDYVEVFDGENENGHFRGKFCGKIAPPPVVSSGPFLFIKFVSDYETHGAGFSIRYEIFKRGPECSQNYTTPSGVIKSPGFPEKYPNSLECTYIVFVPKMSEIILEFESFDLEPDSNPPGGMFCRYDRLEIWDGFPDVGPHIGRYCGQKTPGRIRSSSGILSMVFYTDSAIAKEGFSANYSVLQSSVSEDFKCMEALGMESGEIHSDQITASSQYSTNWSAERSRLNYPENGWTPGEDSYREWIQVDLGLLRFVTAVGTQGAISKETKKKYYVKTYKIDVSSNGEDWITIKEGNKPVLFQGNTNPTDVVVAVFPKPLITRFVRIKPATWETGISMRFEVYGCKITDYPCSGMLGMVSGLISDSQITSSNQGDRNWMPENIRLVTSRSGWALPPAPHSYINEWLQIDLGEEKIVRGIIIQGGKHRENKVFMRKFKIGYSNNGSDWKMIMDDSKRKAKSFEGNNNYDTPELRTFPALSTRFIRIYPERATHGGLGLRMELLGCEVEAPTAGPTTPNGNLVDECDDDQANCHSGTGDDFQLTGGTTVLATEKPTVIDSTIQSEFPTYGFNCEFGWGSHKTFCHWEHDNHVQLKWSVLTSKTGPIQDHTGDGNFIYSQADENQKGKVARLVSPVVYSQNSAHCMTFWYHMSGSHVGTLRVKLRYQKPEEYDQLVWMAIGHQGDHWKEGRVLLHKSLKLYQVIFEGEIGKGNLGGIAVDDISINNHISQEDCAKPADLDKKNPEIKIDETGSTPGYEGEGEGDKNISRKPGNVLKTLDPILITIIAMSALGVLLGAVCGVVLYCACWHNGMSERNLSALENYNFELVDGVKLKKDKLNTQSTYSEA

SARS-CoV-2 [2] = assay: Antiviral activity against HIV-1 pseudotyped SARS-CoV-2 Omicron BA.2.75 infected in HEK293T cells expressing ACE2/NRP1 assessed as reduction in viral replication at 1.6 uM pretreated with cells for 1 hr followed by viral infection and measured after 2 days by firefly luciferase reporter gene assay; format: functional, organism-based; details: Severe acute respiratory syndrome coronavirus 2, time 49.0 hrs
SARS-CoV-2 [3] = assay: microbe, parasite or virus in culture; details: Severe acute respiratory syndrome coronavirus 2, Omicron BA.2.75, HEK-293T, 49 h, read-out: INH
SARS-CoV-2 [4] = assay: microbe, parasite or virus in culture; details: Severe acute respiratory syndrome coronavirus 2, Omicron BA.2.75, HEK-293T
Description: Antiviral activity against HIV-1 pseudotyped SARS-CoV-2 Omicron BA.2.75 infected in HEK293T cells expressing ACE2/NRP1 assessed as reduction in infection rate pretreated with cells for 1 hr followed by viral infection and measured after 2 days by firefly luciferase reporter gene assay

SARS-CoV-2 [5] = assay: microbe, parasite or virus in culture; details: Severe acute respiratory syndrome coronavirus 2, Alpha, HEK-293T
Description: Antiviral activity against HIV-1 pseudotyped SARS-CoV-2 Alpha infected in HEK293T cells expressing ACE2/NRP1 assessed as reduction in infection rate pretreated with cells for 1 hr followed by viral infection and measured after 2 days by firefly luciferase reporter gene assay

SARS-CoV-2 [6] = assay: microbe, parasite or virus in culture; details: Severe acute respiratory syndrome coronavirus 2, Beta, HEK-293T
Description: Antiviral activity against HIV-1 pseudotyped SARS-CoV-2 Beta infected in HEK293T cells expressing ACE2/NRP1 assessed as reduction in infection rate pretreated with cells for 1 hr followed by viral infection and measured after 2 days by firefly luciferase reporter gene assay

SARS-CoV-2 [7] = assay: microbe, parasite or virus in culture; details: Severe acute respiratory syndrome coronavirus 2, Delta, HEK-293T
Description: Antiviral activity against HIV-1 pseudotyped SARS-CoV-2 Delta infected in HEK293T cells expressing ACE2/NRP1 assessed as reduction in infection rate pretreated with cells for 1 hr followed by viral infection and measured after 2 days by firefly luciferase reporter gene assay

Sequence of Angiotensin-converting enzyme 2 (Q9BYF1 whole entry): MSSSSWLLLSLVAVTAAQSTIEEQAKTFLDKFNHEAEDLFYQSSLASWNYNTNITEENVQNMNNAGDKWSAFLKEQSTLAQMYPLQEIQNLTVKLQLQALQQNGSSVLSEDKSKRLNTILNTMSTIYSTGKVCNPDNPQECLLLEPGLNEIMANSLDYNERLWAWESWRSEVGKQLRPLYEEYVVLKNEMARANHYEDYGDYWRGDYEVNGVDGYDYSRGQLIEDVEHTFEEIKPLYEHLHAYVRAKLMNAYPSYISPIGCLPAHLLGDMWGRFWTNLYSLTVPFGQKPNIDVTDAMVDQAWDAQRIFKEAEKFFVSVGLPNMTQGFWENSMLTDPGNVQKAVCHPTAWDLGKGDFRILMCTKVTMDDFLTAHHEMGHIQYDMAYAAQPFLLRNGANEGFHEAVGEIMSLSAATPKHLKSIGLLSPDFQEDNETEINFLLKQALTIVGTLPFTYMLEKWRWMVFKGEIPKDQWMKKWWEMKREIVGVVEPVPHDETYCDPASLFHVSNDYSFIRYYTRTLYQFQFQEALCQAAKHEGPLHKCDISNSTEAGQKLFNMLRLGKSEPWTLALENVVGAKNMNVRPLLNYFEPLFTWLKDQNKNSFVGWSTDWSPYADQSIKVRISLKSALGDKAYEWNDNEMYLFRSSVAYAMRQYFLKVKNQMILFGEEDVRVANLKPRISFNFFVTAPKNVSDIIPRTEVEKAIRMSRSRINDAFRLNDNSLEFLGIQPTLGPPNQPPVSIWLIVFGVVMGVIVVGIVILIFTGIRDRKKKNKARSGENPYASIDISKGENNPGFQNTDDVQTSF

| SMILES | Kd [1] | pKd (Neuropilin-1) | Activity (SARS-CoV-2 [2]) | inhibition at 1.6 µM (SARS-CoV-2 [3]) [%] | pEC50 (SARS-CoV-2 [4]) | pEC50 (SARS-CoV-2 [5]) | pEC50 (SARS-CoV-2 [6]) | pEC50 (SARS-CoV-2 [7]) |
| --- | --- | --- | --- | --- | --- | --- | --- | --- |
| CSCC[C@@H](NC(=O)CNC(=O)CNC(=O)[C@@H](Cc1ccc(O)cc1)NC(=O)[C@@H](Cc1c[nH]c2ccccc12)NC(=O)CNC(=O)[C@@H](Cc1ccc(O)cc1)NC(=O)[C@@H](Cc1ccccc1)NC(=O)[C@@H](Cc1ccccc1)NC(=O)Cc1ccc2ccccc2c1)C(=O)N[C@H](CCC(=O)O)C(=O)N[C@H](CCCCN)C(=O)N[C@H](CC(C)C)C(=O)N[C@H](CC(C)C)C(=O)N[C@H](CCCNC(=N)N)C(=O)NCC(=O)NCC(=O)N[C@H](CCCNC(=N)N)C(=O)NCC(=O)N[C@H](CCC(=O)O)C(=O)N[C@H](CCCNC(=N)N)C(=O)N1CCC[C@@H]1C(=O)N1CCC[C@@H]1C(=O)N[C@H](CCCNC(=N)N)C(=O)O | Not Active | 6.98 | – | – | – | – | – | – |
| CC(C)C[C@@H]1NC(=O)[C@@H]2CCCN2C(=O)[C@H](CO)NC(=O)[C@@H](NC(=O)[C@H](Cc2cnc[nH]2)NC(=O)[C@H](CO)NC(=O)[C@H](Cc2ccccc2)NC(=O)[C@H](CC(=O)O)NC(=O)CN)CSSC[C@@H](C(=O)N[C@H](C(=O)N[C@@H](Cc2ccc(O)cc2)C(=O)N2CCC[C@H]2C(=O)N[C@@H](CC(=O)O)C(=O)N2CCC[C@H]2C(=O)N[C@@H](CCC(=O)O)C(=O)NCC(=O)NCC(=O)NCC(=O)N[C@@H](CCCCN)C(=O)N2CCC[C@H]2C(=O)N[C@@H](C)C(=O)N[C@@H](CCCNC(=N)N)C(=O)N2CCC[C@H]2C(=O)N[C@@H](C)C(=O)N[C@@H](CCCNC(=N)N)C(=O)O)[C@@H](C)O)NC(=O)[C@H](CCCCN)NC(=O)[C@H](Cc2ccccc2)NC(=O)[C@H](Cc2c[nH]c3ccccc23)NC(=O)[C@@H]2CCCN2C(=O)[C@H](Cc2ccccc2)NC(=O)[C@H](Cc2ccc(O)cc2)NC(=O)[C@H](CCCNC(=N)N)NC1=O (H-GDFSHCSPLRYFPWFKCTYPDPEGGGKPARPAR-OH; disulfide 6-17) | – | 7.87 | Active | 70 | 6.35 | 5.56 | 5.66 | 5.92 |
| CC[C@H](C)[C@H](NC(=O)[C@H](Cc1ccccc1)NC(=O)[C@H](CCCCN)NC(=O)[C@H](CC(=O)O)NC(=O)CN)C(=O)N[C@H]1CSSC[C@@H](C(=O)N[C@@H](CC(N)=O)C(=O)N[C@@H](Cc2c[nH]c3ccccc23)C(=O)N[C@@H](Cc2ccc(O)cc2)C(=O)N[C@@H](CC(=O)O)C(=O)N2CCC[C@H]2C(=O)N[C@@H](CCC(=O)O)C(=O)NCC(=O)NCC(=O)NCC(=O)N[C@@H](CCCCN)C(=O)NCC(=O)N[C@@H](CC(N)=O)C(=O)N[C@@H](CCCNC(=N)N)C(=O)N2CCC[C@H]2C(=O)N2CCC[C@H]2C(=O)N[C@@H](CCCNC(=N)N)C(=O)O)NC(=O)[C@H](Cc2ccccc2)NC(=O)[C@H](CCCCN)NC(=O)[C@H](Cc2c[nH]c3ccccc23)NC(=O)[C@@H]2CCCN2C(=O)[C@H](CCCCN)NC(=O)[C@H](CC(=O)O)NC(=O)[C@H](CCCNC(=N)N)NC(=O)[C@H]([C@@H](C)CC)NC(=O)[C@@H]2CCCN2C(=O)[C@H](CC(C)C)NC1=O (H-GDKFICLPIRDKPWKFCNWYDPEGGGKGNRPPR-OH; disulfide 6-17) | – | 7.01 | Active | – | – | – | – | – |
| CC(C)C[C@H](NC(=O)[C@H](CC(=O)O)NC(=O)CN)C(=O)N[C@@H](Cc1cnc[nH]1)C(=O)N[C@@H](C)C(=O)N[C@H]1CSSC[C@@H](C(=O)N[C@H](C(=O)N[C@@H](CC(C)C)C(=O)NCC(=O)N[C@@H](CC(=O)O)C(=O)N2CCC[C@H]2C(=O)N[C@@H](CCC(=O)O)C(=O)NCC(=O)NCC(=O)NCC(=O)N[C@@H](CCCNC(=N)N)C(=O)N[C@@H](CO)C(=O)N2CCC[C@H]2C(=O)N[C@@H](CCCNC(=N)N)C(=O)N[C@@H](CCCNC(=N)N)C(=O)N[C@@H](C)C(=O)N[C@@H](CCCNC(=N)N)C(=O)O)[C@@H](C)O)NC(=O)[C@H](C)NC(=O)[C@H](Cc2c[nH]c3ccccc23)NC(=O)[C@H](Cc2c[nH]c3ccccc23)NC(=O)[C@@H]2CCCN2C(=O)[C@H](CC(=O)O)NC(=O)CNC(=O)[C@H](CCCNC(=N)N)NC(=O)[C@H](C(C)C)NC(=O)[C@@H]2CCCN2C(=O)[C@H](CCCNC(=N)N)NC1=O (H-GDLHACRPVRGDPWWACTLGDPEGGGRSPRRAR-OH; disulfide 6-17) | – | 7.75 | Active | – | – | – | – | – |
| CC[C@H](C)[C@@H]1NC(=O)[C@@H]2CCCN2C(=O)[C@H](CO)NC(=O)[C@@H](NC(=O)[C@@H](NC(=O)[C@H](Cc2ccc(O)cc2)NC(=O)[C@H](CCCNC(=N)N)NC(=O)[C@H](CC(=O)O)NC(=O)CN)[C@@H](C)O)CSSC[C@@H](C(=O)N[C@@H](CC(=O)O)C(=O)N[C@@H](CC(C)C)C(=O)NCC(=O)N[C@@H](CC(=O)O)C(=O)N2CCC[C@H]2C(=O)N[C@@H](CCC(=O)O)C(=O)NCC(=O)NCC(=O)NCC(=O)N[C@@H](CCCCN)C(=O)N[C@@H](C)C(=O)N2CCC[C@H]2C(=O)N[C@@H](CCCNC(=N)N)C(=O)N[C@@H](CCCNC(=N)N)C(=O)N[C@@H](C)C(=O)N[C@@H](CCCNC(=N)N)C(=O)O)NC(=O)[C@H](CCCNC(=N)N)NC(=O)[C@H](Cc2c[nH]c3ccccc23)NC(=O)[C@H](Cc2c[nH]c3ccccc23)NC(=O)[C@@H]2CCCN2C(=O)[C@H](Cc2ccccc2)NC(=O)[C@H](CCSC)NC(=O)[C@H](CCCNC(=N)N)NC1=O (H-GDRYTCSPIRMFPWWRCDLGDPEGGGKAPRRAR-OH; disulfide 6-17) | – | 7.65 | Active | – | – | – | – | – |
| CC(C)C[C@@H]1NC(=O)[C@H](C)NC(=O)[C@H](CCCNC(=N)N)NC(=O)[C@@H](NC(=O)[C@@H]2CCCN2C(=O)[C@H](CO)NC(=O)[C@H](Cc2ccc(O)cc2)NC(=O)[C@H](CC(=O)O)NC(=O)CN)CSSC[C@@H](C(=O)N2CCC[C@H]2C(=O)N[C@@H](CO)C(=O)NCC(=O)N[C@@H](CC(=O)O)C(=O)N2CCC[C@H]2C(=O)N[C@@H](CCC(=O)O)C(=O)NCC(=O)NCC(=O)NCC(=O)N[C@@H](CCCNC(=N)N)C(=O)NCC(=O)N[C@@H](CCCNC(=N)N)C(=O)N[C@@H](CCCNC(=N)N)C(=O)N2CCC[C@H]2C(=O)N2CCC[C@H]2C(=O)N[C@@H](CCCNC(=N)N)C(=O)O)NC(=O)[C@H](CCCNC(=N)N)NC(=O)[C@H](Cc2c[nH]c3ccccc23)NC(=O)[C@H](Cc2c[nH]c3ccccc23)NC(=O)[C@@H]2CCCN2C(=O)[C@H](CO)NC(=O)[C@H](Cc2cnc[nH]2)NC(=O)[C@H](CCCNC(=N)N)NC1=O (H-GDYSPCRALRHSPWWRCPSGDPEGGGRGRRPPR-OH; disulfide 6-17) | – | 7.12 | Active | – | – | – | – | – |
